Laboratory results reported in patent US12264159B2, “Functionalized heterocycles as antiviral agents” (Enanta Pharmaceuticals, Inc., priority 2018, dated 2025).

System: HBV in 2.2.15 cells
Assay: 2.2.15 cells: viral product in cell lysates quantified via quantitative real time PCR
Assay type: cell-based, hepatitis B virus (HBV)
Settings: Hepatitis B virus, 120 h, day 5 post treatment, 50% reduction of viral product vs no drug controls, readout (qPCR, HBsAg or HBeAg) not specified for the column
Procedure: 2.2.15 cells are passaged upon attaining confluency in DMEM/F12 media in the presence of 10% FBS, Penn/Strep, and 250 ug/mL G418. Novel compounds are 5 fold serially diluted in DMSO and added to 96 well plates containing 35,000 cells/well at a 1:200 dilution so that the final concentration of DMSO is 0.5%. On day 5, post treatment cell lysates and supernatants are harvested for analysis.
Cells are lysed using Agilent Sidestep Lysis buffer, diluted 1:100 and quantified via quantitative real time PCR. Commercially available ELISA kits are used to quantitate the viral proteins HBsAg (Alpco) or HBeAg (US Biological) by following the manufacturer's recommended protocol after diluting samples to match the linear range of their respective assays. Irrespective of readout, compound concentrations that reduce viral product accumulation in the cell lysates or supernatants by 50% relative to no drug controls (EC50) are reported; EC50 ranges are as follows: A<0.1 μM; B 0.2-1 μM; C>1 μM.

Row | SMILES | EC50 [nM]
1 | CC(C)[C@@H]1Cn2nc(C3CC3)c(-c3cnco3)c2-c2cc(=O)c(C(=O)O)cn21 [Example 139, (R)-2-cyclopropyl-6-isopropyl-1-(oxazol-5-yl)-10-oxo-5,6-dihydro-10H-pyrazolo[1,5-a]pyrido[2,1-c]pyrazine-9-carboxylic acid] | 200 to 1000
2 | CC(C)[C@@H]1Cn2nc(-c3ccnnc3)c(-c3ccnnc3)c2-c2c(F)c(=O)c(C(=O)O)cn21 [Example 183, (R)-11-fluoro-6-isopropyl-10-oxo-1,2-di(pyridazin-4-yl)-5,6-dihydro-10H-pyrazolo[1,5-a]pyrido[2,1-c]pyrazine-9-carboxylic acid] | 200 to 1000
3 | CC(C)[C@@H]1Cn2nc(C3CC3)c(-c3ccccc3O)c2-c2cc(=O)c(C(=O)O)cn21 [Example 141, (R)-2-cyclopropyl-1-(2-hydroxyphenyl)-6-isopropyl-10-oxo-5,6-dihydro-10H-pyrazolo[1,5-a]pyrido[2,1-c]pyrazine-9-carboxylic acid] | < 100
4 | CC(C)(C)[C@@H]1Cn2nc(-c3ccc(F)cc3)c(-c3ccoc3)c2-c2cc(=O)c(C(=O)O)cn21 [Example 167, (R)-6-(tert-butyl)-2-(4-fluorophenyl)-1-(furan-3-yl)-10-oxo-5,6-dihydro-10H-pyrazolo[1,5-a]pyrido[2,1-c]pyrazine-9-carboxylic acid] | < 100
5 | CC(C)(C)[C@@H]1Cn2ncc(-c3cncnc3)c2-c2cc(=O)c(C(=O)O)cn21 [Example 120, (R)-6-(tert-butyl)-10-oxo-1-(pyrimidin-5-yl)-5,6-dihydro-10H-pyrazolo[1,5-a]pyrido[2,1-c]pyrazine-9-carboxylic acid] | > 1000
6 | CC(C)[C@@H]1Cn2nc(C3CC3)c(-c3ccncc3)c2-c2cc(=O)c(C(=O)O)cn21 [Example 144, (R)-2-cyclopropyl-6-isopropyl-10-oxo-1-(pyridin-4-yl)-5,6-dihydro-10H-pyrazolo[1,5-a]pyrido[2,1-c]pyrazine-9-carboxylic acid] | < 100
7 | CC(C)[C@@H]1Cn2nc(-c3cccc(O)c3)c(-c3cccc(O)c3)c2-c2cc(=O)c(C(=O)O)cn21 [Example 178, (R)-1,2-bis(3-hydroxyphenyl)-6-isopropyl-10-oxo-5,6-dihydro-10H-pyrazolo[1,5-a]pyrido[2,1-c]pyrazine-9-carboxylic acid] | < 100
8 | Cc1ncc(-c2cnn3c2-c2cc(=O)c(C(=O)O)cn2[C@H](C(C)(C)C)C3)s1 [Example 105, (R)-6-(tert-butyl)-1-(2-methylthiazol-5-yl)-10-oxo-5,6-dihydro-10H-pyrazolo[1,5-a]pyrido[2,1-c]pyrazine-9-carboxylic acid] | 200 to 1000
9 | CC(C)[C@@H]1Cn2nc(-c3cncc(F)c3)c(-c3cncc(F)c3)c2-c2cc(=O)c(C(=O)O)cn21 [Example 174, (R)-1,2-bis(5-fluoropyridin-3-yl)-6-isopropyl-10-oxo-5,6-dihydro-10H-pyrazolo[1,5-a]pyrido[2,1-c]pyrazine-9-carboxylic acid] | 200 to 1000
10 | CCOc1ccccc1-c1nn2c(c1F)-c1cc(=O)c(C(=O)O)cn1[C@H](C(C)(C)C)C2 [Example 92, (R)-6-(tert-butyl)-2-(2-ethoxyphenyl)-1-fluoro-10-oxo-5,6-dihydro-10H-pyrazolo[1,5-a]pyrido[2,1-c]pyrazine-9-carboxylic acid] | < 100
11 | CCOc1ccccc1-c1cnn2c1-c1cc(=O)c(C(=O)O)cn1[C@H](C(C)(C)C)C2 [Example 124, (R)-6-(tert-butyl)-1-(2-ethoxyphenyl)-10-oxo-5,6-dihydro-10H-pyrazolo[1,5-a]pyrido[2,1-c]pyrazine-9-carboxylic acid] | < 100
12 | CC(C)[C@@H]1Cn2nc(C3CC3)c(-c3cnsc3)c2-c2cc(=O)c(C(=O)O)cn21 [Example 138, (R)-2-cyclopropyl-6-isopropyl-1-(isothiazol-4-yl)-10-oxo-5,6-dihydro-10H-pyrazolo[1,5-a]pyrido[2,1-c]pyrazine-9-carboxylic acid] | < 100
13 | CC(C)[C@@H]1Cn2nc(-c3cccnc3)c(-c3cccnc3)c2-c2c(F)c(=O)c(C(=O)O)cn21 [Example 189, (R)-11-fluoro-6-isopropyl-10-oxo-1,2-di(pyridin-3-yl)-5,6-dihydro-10H-pyrazolo[1,5-a]pyrido[2,1-c]pyrazine-9-carboxylic acid] | 200 to 1000
14 | CC(C)(C)[C@@H]1Cn2ncc(-c3cccnc3)c2-c2cc(=O)c(C(=O)O)cn21 [Example 118, (R)-6-(tert-butyl)-10-oxo-1-(pyridin-3-yl)-5,6-dihydro-10H-pyrazolo[1,5-a]pyrido[2,1-c]pyrazine-9-carboxylic acid] | < 100
15 | CC(C)[C@@H]1Cn2nc(C3CC3)c(-c3cncc(F)c3)c2-c2cc(=O)c(C(=O)O)cn21 [Example 135, (R)-2-cyclopropyl-1-(5-fluoropyridin-3-yl)-6-isopropyl-10-oxo-5,6-dihydro-10H-pyrazolo[1,5-a]pyrido[2,1-c]pyrazine-9-carboxylic acid] | < 100
16 | CC(C)[C@@H]1Cn2nc(-c3ccnnc3)c(-c3ccnnc3)c2-c2cc(=O)c(C(=O)O)cn21 [Example 173, (R)-6-isopropyl-10-oxo-1,2-di(pyridazin-4-yl)-5,6-dihydro-10H-pyrazolo[1,5-a]pyrido[2,1-c]pyrazine-9-carboxylic acid] | 200 to 1000
17 | CC(C)[C@@H]1Cn2nc(C3CC3)c(-c3cn[nH]c3)c2-c2cc(=O)c(C(=O)O)cn21 [Example 137, (R)-2-cyclopropyl-6-isopropyl-10-oxo-1-(1H-pyrazol-4-yl)-5,6-dihydro-10H-pyrazolo[1,5-a]pyrido[2,1-c]pyrazine-9-carboxylic acid] | 200 to 1000
18 | CC(C)[C@@H]1Cn2nc(-c3cccc(Cl)c3)c(-c3cccc(Cl)c3)c2-c2c(F)c(=O)c(C(=O)O)cn21 [Example 185, (R)-1,2-bis(3-chlorophenyl)-11-fluoro-6-isopropyl-10-oxo-5,6-dihydro-10H-pyrazolo[1,5-a]pyrido[2,1-c]pyrazine-9-carboxylic acid] | 200 to 1000
19 | O=C(O)c1cn2c(cc1=O)-c1c(-c3ccc(F)cc3)c(-c3ccc(F)cc3)nn1CC2 [Example 200, 1,2-bis(4-fluorophenyl)-10-oxo-5,6-dihydro-10H-pyrazolo[1,5-a]pyrido[2,1-c]pyrazine-9-carboxylic acid] | < 100
20 | CC(C)(C)[C@@H]1Cn2nc(C3CC3)c(-c3ccnnc3)c2-c2cc(=O)c(C(=O)O)cn21 [Example 161, (R)-6-(tert-butyl)-2-cyclopropyl-10-oxo-1-(pyridazin-4-yl)-5,6-dihydro-10H-pyrazolo[1,5-a]pyrido[2,1-c]pyrazine-9-carboxylic acid] | 200 to 1000
21 | CC(C)[C@@H]1Cn2nc(-c3ccncc3)c(-c3ccncc3)c2-c2c(F)c(=O)c(C(=O)O)cn21 [Example 184, (R)-11-fluoro-6-isopropyl-10-oxo-1,2-di(pyridin-4-yl)-5,6-dihydro-10H-pyrazolo[1,5-a]pyrido[2,1-c]pyrazine-9-carboxylic acid] | 200 to 1000
22 | O=C(O)c1cn2c(cc1=O)-c1c(-c3ccccc3F)c(-c3ccccc3F)nn1CC2 [Example 202, 1,2-bis(2-fluorophenyl)-10-oxo-5,6-dihydro-10H-pyrazolo[1,5-a]pyrido[2,1-c]pyrazine-9-carboxylic acid] | < 100
23 | CC(C)(C)[C@@H]1Cn2ncc(Cl)c2-c2cc(=O)c(C(=O)O)cn21 [Example 99, (R)-6-(tert-butyl)-1-chloro-10-oxo-5,6-dihydro-10H-pyrazolo[1,5-a]pyrido[2,1-c]pyrazine-9-carboxylic acid] | 200 to 1000
24 | CC(C)(C)[C@@H]1Cn2ncc(-c3ccccc3C(F)(F)F)c2-c2cc(=O)c(C(=O)O)cn21 [Example 121, (R)-6-(tert-butyl)-10-oxo-1-(2-(trifluoromethyl)phenyl)-5,6-dihydro-10H-pyrazolo[1,5-a]pyrido[2,1-c]pyrazine-9-carboxylic acid] | > 1000
25 | CC(C)(C)[C@@H]1Cn2ncc(-c3cncs3)c2-c2cc(=O)c(C(=O)O)cn21 [Example 106, (R)-6-(tert-butyl)-10-oxo-1-(thiazol-5-yl)-5,6-dihydro-10H-pyrazolo[1,5-a]pyrido[2,1-c]pyrazine-9-carboxylic acid] | < 100
26 | CC(C)[C@@H]1Cn2nc(-c3ccc(OC4CC4)cc3)c(-c3ccc(OC4CC4)cc3)c2-c2cc(=O)c(C(=O)O)cn21 [Example 176, (R)-1,2-bis(4-cyclopropoxyphenyl)-6-isopropyl-10-oxo-5,6-dihydro-10H-pyrazolo[1,5-a]pyrido[2,1-c]pyrazine-9-carboxylic acid] | 200 to 1000
27 | CC(C)[C@@H]1Cn2nc(-c3cccc(O)c3)c(-c3cccc(O)c3)c2-c2c(F)c(=O)c(C(=O)O)cn21 [Example 190, (R)-11-fluoro-1,2-bis(3-hydroxyphenyl)-6-isopropyl-10-oxo-5,6-dihydro-10H-pyrazolo[1,5-a]pyrido[2,1-c]pyrazine-9-carboxylic acid] | 200 to 1000
28 | CC(C)(C)[C@@H]1Cn2ncc(-c3ccc(OC(F)(F)F)cc3)c2-c2cc(=O)c(C(=O)O)cn21 [Example 117, (R)-6-(tert-butyl)-10-oxo-1-(4-(trifluoromethoxy)phenyl)-5,6-dihydro-10H-pyrazolo[1,5-a]pyrido[2,1-c]pyrazine-9-carboxylic acid] | > 1000
29 | CC(C)[C@@H]1Cn2nc(C3CC3)c(-c3ccnnc3)c2-c2cc(=O)c(C(=O)O)cn21 [Example 145, (R)-2-cyclopropyl-6-isopropyl-10-oxo-1-(pyridazin-4-yl)-5,6-dihydro-10H-pyrazolo[1,5-a]pyrido[2,1-c]pyrazine-9-carboxylic acid] | 200 to 1000
